The values that follow come from patent US20100310543A1, “METHOD OF PREVENTING AND TREATING ACUTE BRAIN PATHOLOGIES” (UNIVERSITY OF ZURICH, priority 2007, published 2010).

The test system of assay [1] is acute hippocampal slices (area CA1). In words: f-EPSP recovery after transient OGD in acute hippocampal slices. In kind it is cell-based, mouse. The conditions noted are these: for mean f-EPSP slope 80-90 min after the onset of OGD: 25 min OGD, % of pre-OGD baseline. How it is done:
(§1) Adult mice were killed by cervical dislocation and the heads were immediately immersed in freshly prepared ice-cold artificial cerebrospinal fluid (aCSF: 119 mM NaCl, 11 mM D-glucose, 1.3 mM MgCl2.6H2O, 1.3 mM NaH2PO4, 2.5 mM KCl, 2.5 mM CaCl2, 26 mM NaHCO3, gassed with 95% O2/5% CO2 for a minimum of 20-min) for at least 3 min. Brains were quickly removed and hippocampi were extracted for electrophysiological recordings. Acute slices (400 μm thick) were prepared with a vibratome (Leica VT 1000S, Germany) in ice-cold oxygenated aCSF. Slices were transferred to an interface chamber at 34° C. for 40 to 50 min then kept at room temperature for at least 1-2 hours before recording. Recordings were performed in a submersion chamber (Slice Mini Chamber III/IV, Luigs & Neumann, Germany) continuously perfused with aCSF at approximately 1.1 ml/min. A monopolar electrode was placed in the stratum radiatum to activate Schaffer collaterals and test stimuli were applied at 0.033 Hz at an intensity set to evoke 1/3 of the maximum f-EPSP. Evoked f-EPSP were recorded in the stratum radiatum with a borosilicate micropipette filled with NaCl 3M or aCSF. The signal was amplified with an AXOPATCH 200B amplifier (Axon Instruments/Molecular Devices, Germany) and sampled using pCLAMP. Baseline responses were recorded for 10-min or until stable. For extracellular recordings in example 8, a monopolar electrode is placed in the Schaffer collateral fibers, and stimulation is applied at 0.033 Hz with stimulus intensity ranging from 20 to 80 μA, yielding evoked field EPSPs (fEPSPs) of […]. fEPSPs are recorded in the stratum radiatum using a borosilicate micropipette filled with aCSF.
For each electrophysiological experiment, the average slope of individual f-EPSP was measured from the initial 1-1.5 ms-portion following the fiber volley using Clampfit (Axon Instruments, Germany). For statistical analyses, the f-EPSP slope was averaged over 1-min and analyzed by three-way analysis of variance (ANOVA) using Statview 5.0 with sequences (10-min) and stimulation (1-min bins) as repeated measures. […] Infarct volume and DNA fragmentation were analyzed by two-tailed t-tests. Western blots were evaluated by one-way ANOVA followed by LSD post-hoc tests. Statistical significance was set at p=0.05, data are presented as mean±SEM.
Graded doses of OA were used to inhibit both PP1 and PP2A, or PP2A alone.

The subject of assay [2] is PP1. The conditions noted are these: literature ranges, cited from earlier work.
A further assay deals with hippocampal slices. The note with it: 1 μM OA; cited from earlier work.
The next assay relates to PP2A. The conditions noted are these: literature ranges, cited from earlier work.
The next assay deals with JNK1. In words: Western blot of phosphorylated JNK1 in slices subjected to OGD. The note with it: PP1 inhibition (tautomycin) or OGD in vitro. For orientation: In western blotting, separated proteins are transferred to a membrane and probed.
The subject of a further assay is ERK2. In words: Western blot of phosphorylated ERK2 in slices subjected to OGD. The note with it: control slices treated with tautomycin (3 nM) and subjected to OGD.
Another assay deals with ERK1. The assay can be described thus: Western blot of phosphorylated ERK1 in slices subjected to OGD. The conditions noted are these: control slices treated with tautomycin (3 nM) and subjected to OGD.
The subject of the next assay is JNK2. The assay can be described thus: Western blot of phosphorylated JNK2 in slices subjected to OGD. The note with it: PP1 inhibition (tautomycin) in vitro.
Assay [3] concerns hippocampal slices (Schaffer collaterals/CA1). The assay can be described thus: LTD (f-EPSP slope) in hippocampal slices. The class given is cell-based, mouse. The conditions noted are these: 1 nM tautomycin, LTD without OGD. The protocol:
as §1, with “1.1 ml/min. […] Evoked f-EPSP” for “1.1 ml/min. A monopolar electrode was placed in the stratum radiatum to activate Schaffer collaterals and test stimuli were applied at 0.033 Hz at an intensity set to evoke 1/3 of the maximum f-EPSP. Evoked f-EPSP”, “or aCSF. […] Baseline responses” for “or aCSF. The signal was amplified with an AXOPATCH 200B amplifier (Axon Instruments/Molecular Devices, Germany) and sampled using pCLAMP. Baseline responses”, “with aCSF. […]” for “with aCSF.”

Assay [4] has as its system PP1. The note with it: 1 nM tautomycin (submaximal dose); cited from earlier work.

Molecules are shown by their SMILES. “And” between values parts separate entries of the source, which are not always exact repeats. Equal entries are not always repeated. Where two headings read alike, the source gives them in different places.

Procedure for ERK1: (§2) Acute slices (hippocampus, cortex and striatum) were exposed to 15 to 25-min of hypoxic/aglycemic conditions by perfusion with aCSF containing no glucose (replaced with equimolar sucrose) and gassed with N2/CO2 (95/5%) (Lobner and Lipton, 1993; Raley-Susman and Lipton, 1990). […] The OGD solution reached the recording chamber within 30 seconds and replaced the normoxic aCSF within 2-3 min.
(§3) Drugs for slice recordings were bath-applied for 2 hours before recording in oxygenated aCSF. Okadaic acid (Alexis Corporation, Switzerland) and tautomycin (Alexis Corporation and Sigma Aldrich, Switzerland) were dissolved in DMSO (30 mM) and methanol or ethanol (1 mM), respectively, and stock solutions were diluted further in aCSF the day of the experiment. The respective solvents were used for drug-control experiments. For both mutant and control slices, the aCSF was supplemented with doxycycline hydrochloride (Sigma, Buchs, Switzerland) at 8 ng/ml.
(§4) Tissue samples from the striatum ipsilateral and contralateral to MCAO or from acute forebrain slices (hippocampus, cortex and striatum) were homogenized in lysis buffer and centrifuged. Supernatants were resolved on SDS-PAGE and proteins were transferred onto PVDF membranes. […] The band intensity was determined by densitometry and corrected for protein loading using anti-β-actin antibody (A5316; Sigma) as an internal control.
Procedure for ERK2: as §2, §3, §4
Procedure for JNK1: as §2, §3, §4
Procedure for JNK2: as §2, §3, §4

For orientation: IC50 means the concentration needed to halve the response being measured. As for `C=C1[C@@H](O)[C@@H]2O[C@]3(CC[C@H](/C=C/[C@@H](C)[C@@H]4CC(C)=C[C@@]5(O[C@H](C[C@@](C)(O)C(=O)O)CC[C@H]5O)O4)O3)CC[C@H]2O[C@@H]1[C@@H](O)C[C@H](C)[C@H]1O[C@@]2(CCCCO2)CC[C@H]1C` [OA, okadaic acid], the “mean f-EPSP slope 80-90 min after the onset of OGD” value in assay [1] (0.1 nM drug) is 76.6±20.5%; in assay [1] (1 nM drug), 86.8±5.2%; in [1] (10 nM drug), 56.6±23.9%; in [1] (100 nM drug), 43.5±16.6% and 43.1±15.6%; in assay [1] (1 μM drug), 20.2±13.9% and 20.3±14.4%. Further, the IC50 is 20 to 100 nM in the assay with PP1 [2], 10 to 1300 nM with PP1 [2] (listed as okadaic acid), 0.1 to 1 nM in the assay on PP2A and 0.02 to 1 nM with PP2A (listed as okadaic acid). In the assay with hippocampal slices, the “effect on LTP induced by a single 1-sec train at 100 Hz” value was “blocked”.

Take `CO[C@H]([C@H](O)CC(=O)[C@@H](C)[C@@H](O)CC[C@@H](C)[C@@H]1O[C@]2(CC[C@@H](C)[C@H](CC[C@H](C)C(C)=O)O2)CC[C@@H]1C)[C@H](OC(=O)C[C@@H](O)C1=C(C)C(=O)OC1=O)C(C)C` [tautomycin]: the JNK1 phosphorylation entry in the assay with JNK1 is given as “not altered”. The “increase in phosphorylated ERK2” value in the assay on ERK2 is on record as “+404.1±28.5%”. For the same molecule, in the assay with ERK1, the “increase in phosphorylated ERK1” value is recorded as “+366.8±48.6%”. Also, in the assay on JNK2, the “phosphorylated JNK2” value is listed as “did not increase”. Further, the results for the “f-EPSP slope after LTD, % of baseline at 90 min” value in [3] (I-1* mutant slices) and in assay [3] (control slices) were 96.3±3.6% and 85.2±3.0%, respectively. In addition, the “mean f-EPSP slope 80-90 min after the onset of OGD” value in [1] (1 nM drug) is reported as 88.6±1.5%; in [1] (3 nM drug) it was 31.4±4.6%; in assay [1] (10 nM drug), 4.4±2.9%; in [1] (100 nM drug), 0.9±1.3%. For the same molecule, in [1] (1 nM tautomycin, I-1* mutant slices, LTD 10 min prior to OGD), the “f-EPSP slope after LTD+OGD, % of baseline 90 min after LTD induction” value came to 37.0±10.8%. The PP1 inhibition result with PP1 [4] is recorded as “about 30%”. In the assay with PP2A, the IC50 is 10 to 23 nM and 10 to 20 nM.
